Like-named read-outs stand apart in the source and are kept apart here. Where only a bound is given, the exact number is not on record here.

Results on nine compounds are retold here after patent publication US20090162351A1, “Transdiscal administration of inhibitors of p38 MAP kinase” (DePuy Spine, Inc., priority 2007, published 2009).

Data set [1] relates to injured bovine cartilage explants.
Source text: Bovine articular cartilage was obtained from the knee joints of adult, eighteen to twenty-four month old animals and processed within twenty-four hours after sacrifice. […] Care was taken to consistently prepare the same thickness of bone layer. The cartilage-on-bone specimens were subjected to an impact. […] After each impact, the cartilage area with a visible indent of ˜0.5-1 mm in the center was punched out with a 3 mm diameter puncher and immediately soaked in PBS with 1× Antibiotic-Antimycotic. Throughout the impact procedure and preparation of specimens, the cartilage was kept moist using PBS to prevent tissue dehydration. The cartilage discs were sterilized through 3× one hour wash in PBS with 10× Antibiotic-Antimycotic followed by 1×0.5 hour wash in PBS with 1× Antibiotic-Antimycotic. After wash, the specimens were incubated with conditioned medium harvested from peripheral blood mononuclear cells (PBMC) stimulated with or without LPS and at the same time, were treated with or without compounds for five days at 37° C., 5% CO2. Culture medium was collected for GAG release, NO and PGE2 assays, and assessment for cytotoxicity.
Cell death was assessed by measuring the amount of lactate dehydrogenase (LDH) in the culture supernatant. 10-20 μl of culture medium was incubated with the reaction mixture from the Cytotoxicity Detection Kit (LDH, Roche), as described in Example III above. The amount of formazan formed was measured at 500 nm, which was proportional to the number of dead cells. Since no purified LDH was available for a standard curve at each measurement, an LDH level for 100% dead cells was measured in each experiment. The lysate for the dead cells was prepared as follows: Chondrocytes were enzymatically isolated as described earlier and about 0.1 million cells that were equivalent to the number of cells contained in a 3-mm punch of fresh cartilage explant were lysed in 1 ml of PBS with 1% Triton-100. Approximately 10-20 μl of the lysate was used in the assay as killed cell control. […]
For data set [2], the system named is PGE2 synthesis in injured bovine cartilage explants. Briefly: Drop tower model: PGE2 synthesis in injured cartilage explants. Type of data set: cell-based. The note with it: for inhibition at 1 µM / inhibition at 10 µM: Bos taurus, injured cartilage explants; for effect on PGE2 synthesis (in words): drop tower model, cocktail of cytokines. As for the experimental part:
In the second method, the explants were cultured at 37° C., 5% CO2 either in stimulated or non-stimulated conditioned medium as described above or in defined medium containing DMEM supplemented with 1% FCS, 1× insulin-transferrin-sodium selenite media supplement and Antibiotics-Antimycotics in the presence or absence of a cocktail of cytokines containing 10 ng/ml of IL-1β, 100 ng/ml of TNFα and 5 ng/ml of IFN-γ. The compounds were solubilized in H2O, Ethanol or DMSO (10^−2 M) according to suppliers' instructions and further diluted with either conditioned medium stimulated with or without LPS to the required concentrations. DMSO concentrations in the culture media never exceeded 1%. This concentration of DMSO has no effect on cartilage proteoglycan metabolism in response to cytokines. The injured and noninjured cartilage explants were treated with compound-containing medium for three to five days. The specimens were first treated with compounds at desired concentrations at 37° C. for one hour and then incubated for three to five days in the absence or presence of the cocktail of cytokines. At the end of the incubation, media and cartilage samples were harvested and frozen for further analysis.
PGE2 was measured with STAT-Prostaglandin E2 EIA ELISA kit (Cayman Biochemicals), as described in Example III above. The antibody-PGE2 complex binds to a goat polyclonal anti-mouse IgG that has been previously attached to the well. After washing to remove any unbound reagents, para-nitrophenyl phosphate (pNPP) was added to the well. The product of this enzymatic reaction absorbs strongly at 412 nm. Because of the large range in response to IL-1β and other cytokines, PGE2 values were converted to log scale prior to doing t-tests.

For data set [3], the system named is aggrecan and collagen type 2 mRNA in bovine AF and NP cells. Briefly: 3D in vitro disc cell model: Taqman gene expression. The data set is classed as cell-based. Particulars: 10 ng/ml IL-1β; inhibitor 1 μM, rhGDF-5 200 ng/ml. From the text: Three-dimensional in vitro annulus fibrosis (AF) and nucleus pulposus (NP) models were established to investigate proteoglycan modulation and changes in gene expression in response to inflammatory cytokines such as interleukin-1 (e.g., IL-1β) and potential therapeutic agents such as growth and differentiation factor (GDF-5), and p38 MAP kinase inhibitors. AF and NP cells from bovine caudal discs were isolated by enzymatic digestion and seeded (2×10^6 cells/cm^2) onto Millipore CM filters coated with Collagen Type II and cultured in DMEM/20% heat-inactivated FBS, 100 ug/ml ascorbic acid and 5 ng/ml TGFβ1. […] Results were evaluated by histology (Tol. Blue staining was used to observe matrix production). Dimethylmethylene blue (DMMB) was used to detect sulphated glycosaminoglycans in a GAG/DNA assay. Taqman analysis was performed on aggrecans (AGG), collagen type 1 (col-1), collagen type 2 (col-2), and MMP 3, MMP 9 and MMP 13. In FIGS. 19A-C and 20A-C, annulus fibrosus and nucleus pulposus cells from bovine caudal discs were isolated by enzymatic digestion and seeded (2×10^6 cells/cm2) onto Millipore CM filters coated with Collagen Type II and cultured in DMEM/20% heat-inactivated FBS/100 ug/ml ascorbic acid and 5 ng/ml TGF-β1.
Background: Quantitative PCR measures a nucleic acid by following its amplification.

The next data set deals with p38α MAP kinase (h-p38α) (Homo sapiens, UniProt Q16539). Briefly: p38α MAP kinase inhibition (direct enzyme assay). Type of data set: biochemical. Particulars: read-out: inhibitor of p38a MAP kinase, IC50.
Chain of p38α MAP kinase (h-p38α) (Q16539 whole entry): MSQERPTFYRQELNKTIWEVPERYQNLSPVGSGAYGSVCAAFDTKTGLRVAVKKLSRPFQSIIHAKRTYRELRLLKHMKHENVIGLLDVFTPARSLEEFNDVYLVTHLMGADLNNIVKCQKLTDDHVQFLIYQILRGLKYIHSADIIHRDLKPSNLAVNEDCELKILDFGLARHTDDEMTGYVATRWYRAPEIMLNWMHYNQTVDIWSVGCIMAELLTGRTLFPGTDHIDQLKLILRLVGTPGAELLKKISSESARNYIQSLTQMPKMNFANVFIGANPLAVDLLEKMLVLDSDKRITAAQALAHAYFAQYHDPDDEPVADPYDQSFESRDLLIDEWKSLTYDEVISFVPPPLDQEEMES
For another data set, the target named is COX1 (Homo sapiens, UniProt P23219). Briefly: COX1 inhibition. The data set is classed as biochemical. The note with it: read-out: inhibitor of COX1, IC50.
Chain of COX1 (P23219 24-599): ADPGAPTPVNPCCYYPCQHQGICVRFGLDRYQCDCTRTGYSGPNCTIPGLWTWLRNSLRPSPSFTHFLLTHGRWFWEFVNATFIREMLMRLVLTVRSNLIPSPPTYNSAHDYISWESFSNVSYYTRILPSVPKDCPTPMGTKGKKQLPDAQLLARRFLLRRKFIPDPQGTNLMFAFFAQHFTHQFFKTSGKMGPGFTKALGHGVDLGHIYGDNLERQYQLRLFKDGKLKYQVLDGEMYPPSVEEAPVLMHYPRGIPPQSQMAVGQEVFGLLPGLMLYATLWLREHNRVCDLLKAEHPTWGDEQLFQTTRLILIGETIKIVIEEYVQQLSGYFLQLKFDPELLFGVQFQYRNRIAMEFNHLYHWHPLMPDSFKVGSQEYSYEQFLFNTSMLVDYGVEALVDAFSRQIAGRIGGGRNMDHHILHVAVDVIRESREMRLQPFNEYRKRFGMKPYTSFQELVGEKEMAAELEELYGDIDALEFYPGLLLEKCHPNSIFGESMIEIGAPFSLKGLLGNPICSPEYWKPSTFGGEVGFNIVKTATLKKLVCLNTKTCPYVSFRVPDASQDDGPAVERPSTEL
The target of the next data set is T1, COX2 (Homo sapiens, UniProt P35354).
T1 sequence (P35354 18-604): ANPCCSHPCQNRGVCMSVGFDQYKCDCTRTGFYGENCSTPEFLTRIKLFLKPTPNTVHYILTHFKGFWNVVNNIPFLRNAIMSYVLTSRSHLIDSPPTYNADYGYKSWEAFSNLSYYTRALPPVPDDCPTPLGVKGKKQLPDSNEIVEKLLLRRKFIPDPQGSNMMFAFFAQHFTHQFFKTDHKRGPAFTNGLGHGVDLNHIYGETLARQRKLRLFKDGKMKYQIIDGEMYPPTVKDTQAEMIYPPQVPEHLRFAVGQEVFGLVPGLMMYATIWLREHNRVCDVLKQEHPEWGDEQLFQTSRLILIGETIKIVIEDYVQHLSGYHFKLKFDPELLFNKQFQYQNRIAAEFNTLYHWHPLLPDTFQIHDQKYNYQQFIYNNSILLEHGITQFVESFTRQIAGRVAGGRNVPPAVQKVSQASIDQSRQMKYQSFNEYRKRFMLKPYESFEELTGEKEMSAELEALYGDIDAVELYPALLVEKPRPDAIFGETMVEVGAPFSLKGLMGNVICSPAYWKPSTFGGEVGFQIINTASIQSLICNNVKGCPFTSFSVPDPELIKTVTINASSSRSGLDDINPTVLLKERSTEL
In words: COX2 inhibition. The data set is classed as biochemical. The note with it: read-out: inhibitor of COX2, IC50.

The test system of data set [4] is LPS-induced TNF in human peripheral blood mononuclear cells (hPBMC). Briefly: LPS-induced TNF in hPBMC. Type of data set: cell-based. The note with it: read-out: inhibitor of LPS-induced TNF hPBMC, IC50.
The next data set in a line: Water solubility. The data set is classed as physicochemical.
The test system of a further data set is JNK. In words: JNK inhibition. Type of data set: biochemical. The note with it: read-out: inhibitor of JNK, IC50.
Data set [5] addresses inactivated p38 MAP kinase (Homo sapiens, UniProt Q16539). Briefly: Binding to inactivated p38 MAP kinase. Particulars: read-out: binds to inactivated p38 MAP kinase, Kd.
Data set [6] concerns LPS-induced IL-1 in hPBMC. Briefly: LPS-induced IL-1 in hPBMC. Type of data set: cell-based, human. Particulars: read-out: inhibitor of LPS-induced IL-1 in hPBMC, IC50.
The next data set has as its target CYP2C9 (Homo sapiens, UniProt P11712). In words: CYP2C9 inhibition. The data set is classed as in vitro ADME.
The next data set in a line: Rat PK. Type of data set: in vivo.
A further data set relates to 6 CYP450. In words: Inhibition of 6 CYP450. The data set is classed as in vitro ADME.
The nature of a further data set: Monkey PK. Particulars: in vivo, female monkey.

Chain of CYP2C9 (P11712 whole entry): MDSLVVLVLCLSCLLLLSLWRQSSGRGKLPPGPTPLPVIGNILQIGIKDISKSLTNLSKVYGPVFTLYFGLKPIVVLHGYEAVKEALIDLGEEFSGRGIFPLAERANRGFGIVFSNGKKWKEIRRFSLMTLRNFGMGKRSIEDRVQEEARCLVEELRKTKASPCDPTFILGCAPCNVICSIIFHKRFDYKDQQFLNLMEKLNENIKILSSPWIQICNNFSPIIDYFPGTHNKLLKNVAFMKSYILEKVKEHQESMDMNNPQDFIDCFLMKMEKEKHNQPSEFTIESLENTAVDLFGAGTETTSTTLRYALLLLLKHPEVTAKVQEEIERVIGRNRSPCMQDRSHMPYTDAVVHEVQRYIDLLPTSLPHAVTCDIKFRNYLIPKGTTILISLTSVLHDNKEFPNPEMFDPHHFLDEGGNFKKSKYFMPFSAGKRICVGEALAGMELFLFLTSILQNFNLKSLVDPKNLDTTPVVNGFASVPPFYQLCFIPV
Chain of inactivated p38 MAP kinase (Q16539 whole entry): as the sequence (Q16539 whole entry) above

Consider `CC(=O)Oc1cccc2c1C(=O)c1c(OC(C)=O)cc(C(=O)O)cc1C2=O` [Diacerein, reference compound], for which the “cytotoxicity, LDH (in words)” value in data set [1] is reported as “tolerant”.
The inhibition is the relative decrease from the control value, in per cent. One may read the IC50 as the midpoint of a concentration-inhibition curve. For `OCCC#Cc1nc(-c2ccc(F)cc2)c(-c2ccncc2)n1CCCc1ccccc1` [JNJ 3026582 (RWJ 67657), 4-[4-(4-fluorophenyl)-1-(3-phenylpropyl)-5-(4-pyridinyl)-1H-imidazol-2-yl]-3-butyn-1-ol], the inhibition at 1 µM in [2] came out at 33%. The inhibition at 10 µM in data set [2] amounted to 90%. Besides, the “effect on PGE2 synthesis (in words)” value in data set [2] was “dose-dependently inhibited”. In [3], the “gene expression of Agg and Col 2 (in words)” value was “restored”. Also, the IC50 on p38α MAP kinase (h-p38α) is 0.02 µM; at COX1, greater than 10 µM; on COX2, greater than 10 µM; in data set [4] (Homo sapiens, PBMC) it was 0.004 µM. In addition, the “pH at which soluble” value in “Water solubility” is less than 2. For the same compound, the “water solubility (in words)” value in “Water solubility” is “poor water solubility”. Further, in the data set “Water solubility” (0.1 M HCl), the “solubility in 0.1 M HCl (in words)” value is on record as “soluble in 0.1 M HCl”.
A word on the solubility: it is how much of the substance goes into solution per volume. On to `C[C@H](Nc1nccc(-c2c(-c3ccc(F)cc3)nc3nc(N)ccn23)n1)c1ccccc1` [JNJ 7583979 (RWJ 351958)], for which the IC50 is 0.001 µM at p38α MAP kinase (h-p38α), 0.012 µM with JNK, greater than 10 µM on COX1 and greater than 10 µM on COX2. In the data set “Water solubility”, the “water solubility (in words)” value is recorded as “poor water solubility”. Besides, the solubility in “Water solubility” (water (aqueous, simulated gastric fluid), at pH 2, read-out: solubility) is greater than 1 mg/mL.
Broadly, the Kd is the equilibrium constant for the complex coming apart. For `CC(=O)N1CCN(c2c(-c3ccncc3)c(-c3ccc(F)cc3)c(C#N)n2C)CC1` [JNJ 17089540 (RWJ 669307)], in data set [2], the “effect on PGE2 synthesis (in words)” value was “dose-dependently inhibited”. The half-maximal inhibitory concentration (IC50) was 2 µM on p38α MAP kinase (h-p38α); greater than 10 µM on COX1; greater than 10 µM on COX2; 0.22 µM in [4]; 0.25 µM in data set [6]. Besides, the Kd in [5] amounted to 0.1 µM. Further, the water solubility in “Water solubility” (of HCl salt) was greater than 100 mg/mL.
Take `CO[C@H]1C[C@@H]2CC[C@@H](C)[C@@](O)(O2)C(=O)C(=O)N2CCCC[C@H]2C(=O)O[C@H]([C@H](C)C[C@@H]2CC[C@@H](O)[C@H](OC)C2)CC(=O)[C@H](C)/C=C(\C)[C@@H](O)[C@@H](OC)C(=O)[C@H](C)C[C@H](C)/C=C/C=C/C=C/1C` [Rapamycin, reference compound]: the “cytotoxicity, LDH (in words)” value in data set [1] was “little cytotoxicity”.
For the compound `O=C(O)c1cc(O)c2c(c1)C(=O)c1cccc(O)c1C2=O` [Rhein, reference compound], in [1], the “cytotoxicity, LDH (in words)” value is “tolerant”.
As for `C[C@@H]1CN(Cc2ccc(F)cc2)[C@@H](C)CN1C(=O)c1cc2cc(C(=O)C(=O)N(C)C)[nH]c2cc1Cl` [SCIO-282 (SD 282)], the “effect on PGE2 synthesis (in words)” value in [2] is “dose-dependently inhibited”. At CYP2C9, this compound displayed an IC50 of 0.5 µM. In the data set “Rat PK” (female rat), the “Rat (F) PK, F %” value was found to be 46%. Further, the “water solubility (in words)” value in the data set “Water solubility” is recorded as “limited water solubility”.
On to `C[C@@H]1CN(Cc2ccc(F)cc2)[C@@H](C)CN1C(=O)c1cc2c(C(=O)C(=O)N(C)C)cn(C)c2cc1Cl` [SCIO-469 (SD 469)], for which, in [2], the “effect on PGE2 synthesis (in words)” value is listed as “inhibited”. In addition, the IC50 was greater than 1 µM in the data set with 6 CYP450 and greater than 1 µM with 6 CYP450 (human, Table 2). The half-life in the data set “Rat PK” (in vivo, female rat, read-out: Rat (F) PK, t1/2 (converted)) is 1 h; in “Rat PK” (in vivo, male rat, read-out: Rat (M) PK, t1/2 (converted)), 0.5 h; in “Monkey PK” (read-out: Monkey (F) PK, t1/2 (converted)), 1.3 h. Also, the bioavailability in “Rat PK” (in vivo, male rat, read-out: Rat (M) PK, F %) worked out at 15%; in “Monkey PK” (read-out: Monkey (F) PK, F %), 12%.
In data set [2], `COc1ccc(-n2nc(CCC(=O)N(C)O)cc2-c2ccc(Cl)cc2)cc1` [Tepoxalin, reference compound] yielded an inhibition at 1 µM of 77% and an inhibition at 10 µM of 90%.
